Reference: PubChem BioAssay AID180 (DTP/NCI, 2004)
Values joined by “and” are separate entries in the source; they are usually repeats but may differ in a detail not shown here. Equal entries are not always repeated.

Test system: BDF1 mice, Adenocarcinoma 755 s.c., tumor weight T/C
Assay: NCI In Vivo Anticancer Drug Screen. Data for tumor model Adenocarcinoma 755 (subcutaneous) in B6D2F1 (BDF1) mice
Conditions: endpoint: mean tumor weight, higher = larger tumour
Procedure, shortened: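 Readout: T/C, i.e. treated-group measurement over vehicle-control measurement. Endpoint is survival or tumor size in tumor-bearing mice given compound.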

[1] = dose: 25.0 mg/kg/injection, schedule: Q01DX011 (ip), vehicle: carboxymethylcellulose (CMC)
[2] = dose: 25.0 mg/kg/injection, schedule: Q01DX011 (ip), vehicle: saline

With `CCn1cnc2c(=S)nc[nH]c21` the T/C (dose: 0.75 mg/kg/injection, schedule: Q01DX011 (ip), vehicle: carboxymethylcellulose (CMC)) was 100 % of control, the T/C (dose: 0.75 mg/kg/injection, schedule: Q#A X022 (ip), vehicle: carboxymethylcellulose (CMC)) was 18 % of control and the T/C (dose: 1.5 mg/kg/injection, schedule: Q01DX006 (iv), vehicle: carboxymethylcellulose (CMC)) was 121 % of control. For the same molecule, the T/C (dose: 1.5 mg/kg/injection, schedule: Q01DX011 (im), vehicle: carboxymethylcellulose (CMC)) was 14 % of control, the T/C (dose: 1.5 mg/kg/injection, schedule: Q01DX011 (sc), vehicle: carboxymethylcellulose (CMC)) was 39 % of control and the T/C (dose: 1.5 mg/kg/injection, schedule: Q#A X022 (ip), vehicle: carboxymethylcellulose (CMC)) was 1 % of control. For the same molecule, the T/C (dose: 3.0 mg/kg/injection, schedule: Q01DX006 (iv), vehicle: carboxymethylcellulose (CMC)) was 22 % of control, the T/C (dose: 3.0 mg/kg/injection, schedule: Q01DX011 (im), vehicle: carboxymethylcellulose (CMC)) was 5 % of control and the T/C (dose: 3.0 mg/kg/injection, schedule: Q01DX011 (ip), vehicle: carboxymethylcellulose (CMC)) was 6 % of control and 19 % of control. For the same molecule, the T/C (dose: 3.0 mg/kg/injection, schedule: Q01DX011 (sc), vehicle: carboxymethylcellulose (CMC)) was 17 % of control, the T/C (dose: 3.0 mg/kg/injection, schedule: Q#A X022 (ip), vehicle: carboxymethylcellulose (CMC)) was 1 % of control and the T/C (dose: 4.5 mg/kg/injection, schedule: Q03DX004 (ip), vehicle: carboxymethylcellulose (CMC)) was 24 % of control. The T/C (dose: 4.6 mg/kg/injection, schedule: Q01DX011 (ip), vehicle: carboxymethylcellulose (CMC)) was 58 % of control, the T/C (dose: 4.62 mg/kg/injection, schedule: Q01DX011 (ip), vehicle: carboxymethylcellulose (CMC)) was 1 % of control and the T/C (dose: 6.0 mg/kg/injection, schedule: Q01DX006 (iv), vehicle: carboxymethylcellulose (CMC)) was 15 % of control. The T/C (dose: 6.0 mg/kg/injection, schedule: Q01DX011 (im), vehicle: carboxymethylcellulose (CMC)) was 1 % of control, the T/C (dose: 6.0 mg/kg/injection, schedule: Q01DX011 (ip), vehicle: carboxymethylcellulose (CMC)) was 4 % of control and 13 % of control and the T/C (dose: 6.0 mg/kg/injection, schedule: Q01DX011 (sc), vehicle: carboxymethylcellulose (CMC)) was 3 % of control. For the same molecule, the T/C (dose: 6.0 mg/kg/injection, schedule: Q#A X022 (ip), vehicle: carboxymethylcellulose (CMC)) was 1 % of control, the T/C (dose: 9.0 mg/kg/injection, schedule: Q03DX004 (ip), vehicle: carboxymethylcellulose (CMC)) was 23 % of control and the T/C (dose: 9.2 mg/kg/injection, schedule: Q01DX011 (ip), vehicle: carboxymethylcellulose (CMC)) was 20 % of control. The T/C (dose: 9.25 mg/kg/injection, schedule: Q01DX011 (ip), vehicle: carboxymethylcellulose (CMC)) was 1 % of control, the T/C (dose: 9.25 mg/kg/injection, schedule: Q01DX011 (oral), vehicle: carboxymethylcellulose (CMC)) was 1 % of control and the T/C (dose: 11.0 mg/kg/injection, schedule: Q07DX002 (ip), vehicle: carboxymethylcellulose (CMC)) was 53 % of control. For the same molecule, the T/C (dose: 12.0 mg/kg/injection, schedule: Q01DX006 (iv), vehicle: carboxymethylcellulose (CMC)) was 3 % of control, the T/C (dose: 12.0 mg/kg/injection, schedule: Q01DX011 (ip), vehicle: carboxymethylcellulose (CMC)) was 3 % of control and the T/C (dose: 18.0 mg/kg/injection, schedule: Q03DX004 (ip), vehicle: carboxymethylcellulose (CMC)) was 4 % of control. The T/C (dose: 18.5 mg/kg/injection, schedule: Q01DX011 (ip), vehicle: carboxymethylcellulose (CMC)) was 6 % of control, the T/C (dose: 22.0 mg/kg/injection, schedule: Q07DX002 (ip), vehicle: carboxymethylcellulose (CMC)) was 33 % of control and the T/C (dose: 25.0 mg/kg/injection, schedule: Q01DX006 (iv), vehicle: carboxymethylcellulose (CMC)) was 2 % of control. The T/C [1] was 1 % of control, the T/C (dose: 25.0 mg/kg/injection, schedule: Q01DX011 (sc), vehicle: carboxymethylcellulose (CMC)) was 1 % of control and the T/C (dose: 37.0 mg/kg/injection, schedule: Q01DX011 (ip), vehicle: carboxymethylcellulose (CMC)) was 2 % of control. The T/C (dose: 37.0 mg/kg/injection, schedule: Q03DX004 (ip), vehicle: carboxymethylcellulose (CMC)) was 1 % of control, the T/C (dose: 44.0 mg/kg/injection, schedule: Q07DX002 (ip), vehicle: carboxymethylcellulose (CMC)) was 8 % of control and the T/C (dose: 75.0 mg/kg/injection, schedule: Q03DX004 (ip), vehicle: carboxymethylcellulose (CMC)) was 1 % of control. For the same molecule, the T/C (dose: 87.0 mg/kg/injection, schedule: Q07DX002 (ip), vehicle: carboxymethylcellulose (CMC)) was 4 % of control and 8 % of control and the T/C (dose: 350.0 mg/kg/injection, schedule: Q07DX002 (ip), vehicle: carboxymethylcellulose (CMC)) was 2 % of control.
In the case of `CCOc1ccc2nc(S(N)(=O)=O)sc2c1`, the T/C (dose: 50.0 mg/kg/injection, schedule: Q01DX011 (ip), vehicle: methylcellulose (MC)) was 60 % of control, the T/C (dose: 100.0 mg/kg/injection, schedule: Q01DX011 (ip), vehicle: carboxymethylcellulose (CMC)) was 23 % of control and 30 % of control and the T/C (dose: 100.0 mg/kg/injection, schedule: Q01DX011 (ip), vehicle: methylcellulose (MC)) was 89 % of control. For the same molecule, the T/C (dose: 200.0 mg/kg/injection, schedule: Q01DX011 (ip), vehicle: carboxymethylcellulose (CMC)) was 13 % of control and the T/C (dose: 400.0 mg/kg/injection, schedule: Q01DX011 (ip), vehicle: methylcellulose (MC)) was 19 % of control.
With `Cc1ccccc1CNc1ncnc2[nH]ncc12` the T/C (dose: 5.0 mg/kg/injection, schedule: Q01DX011 (ip), vehicle: saline) was 79 % of control, the T/C (dose: 10.0 mg/kg/injection, schedule: Q01DX011 (ip), vehicle: saline) was 60 % of control and the T/C [2] was 29 % of control. The T/C (dose: 100.0 mg/kg/injection, schedule: Q01DX011 (ip), vehicle: saline) was 4 % of control and the T/C (dose: 125.0 mg/kg/injection, schedule: Q01DX011 (ip), vehicle: saline) was 9 % of control.
With `CSc1nc(N)c(NC=O)c(=O)n1C` the T/C [2] was 118 % of control and the T/C (dose: 75.0 mg/kg/injection, schedule: Q01DX011 (ip), vehicle: saline) was 66 % of control.
For `ClCCn1cnc2c(SCc3ccccc3)ncnc21`, the T/C (dose: 0.5 mg/kg/injection, schedule: Q01DX011 (ip), vehicle: other) was 115 % of control, the T/C (dose: 0.5 mg/kg/injection, schedule: Q01DX011 (oral), vehicle: other) was 98 % of control and the T/C (dose: 1.0 mg/kg/injection, schedule: Q01DX011 (ip), vehicle: other) was 72 % of control. The T/C (dose: 1.0 mg/kg/injection, schedule: Q01DX011 (oral), vehicle: other) was 79 % of control, the T/C (dose: 2.0 mg/kg/injection, schedule: Q01DX011 (ip), vehicle: other) was 67 % of control and the T/C (dose: 2.0 mg/kg/injection, schedule: Q01DX011 (oral), vehicle: other) was 72 % of control. The T/C (dose: 4.0 mg/kg/injection, schedule: Q01DX011 (ip), vehicle: other) was 36 % of control, the T/C (dose: 4.0 mg/kg/injection, schedule: Q01DX011 (oral), vehicle: other) was 40 % of control and the T/C (dose: 8.0 mg/kg/injection, schedule: Q01DX011 (ip), vehicle: other) was 3 % of control. The T/C (dose: 15.0 mg/kg/injection, schedule: Q01DX011 (ip), vehicle: other) was 3 % of control, the T/C (dose: 15.0 mg/kg/injection, schedule: Q01DX011 (oral), vehicle: other) was 7 % of control and the T/C [1] was 1 % of control. The T/C (dose: 50.0 mg/kg/injection, schedule: Q01DX011 (ip), vehicle: carboxymethylcellulose (CMC)) was 3 % of control.
For `CCCCOC(OCCCC)C(OCCCC)OCCCC`, the T/C (dose: 50.0 mg/kg/injection, schedule: Q01DX011 (ip), vehicle: other) was 105 % of control, the T/C (dose: 100.0 mg/kg/injection, schedule: Q01DX011 (ip), vehicle: other) was 106 % of control and the T/C (dose: 200.0 mg/kg/injection, schedule: Q01DX011 (ip), vehicle: other) was 63 % of control.
In the case of `CCOC(=O)NP(=O)(N1CC1)N1CC1`, the T/C (dose: 2.37 mg/kg/injection, schedule: Q01DX011 (ip), vehicle: carboxymethylcellulose (CMC)) was 118 % of control, the T/C (dose: 2.5 mg/kg/injection, schedule: Q01DX011 (ip), vehicle: carboxymethylcellulose (CMC)) was 67 % of control and the T/C (dose: 4.75 mg/kg/injection, schedule: Q01DX011 (ip), vehicle: carboxymethylcellulose (CMC)) was 104 % of control. The T/C (dose: 5.0 mg/kg/injection, schedule: Q01DX011 (ip), vehicle: carboxymethylcellulose (CMC)) was 73 % of control, the T/C (dose: 7.6 mg/kg/injection, schedule: Q01DX011 (ip), vehicle: carboxymethylcellulose (CMC)) was 101 % of control and the T/C (dose: 8.0 mg/kg/injection, schedule: Q01DX011 (ip), vehicle: carboxymethylcellulose (CMC)) was 52 % of control. For the same molecule, the T/C (dose: 9.5 mg/kg/injection, schedule: Q01DX011 (ip), vehicle: carboxymethylcellulose (CMC)) was 61 % of control and 75 % of control, the T/C (dose: 10.0 mg/kg/injection, schedule: Q01DX011 (ip), vehicle: carboxymethylcellulose (CMC)) was 58 % of control and 77 % of control and the T/C (dose: 12.66 mg/kg/injection, schedule: Q01DX011 (ip), vehicle: carboxymethylcellulose (CMC)) was 54 % of control. The T/C (dose: 13.3 mg/kg/injection, schedule: Q01DX011 (ip), vehicle: carboxymethylcellulose (CMC)) was 18 % of control, the T/C (dose: 19.0 mg/kg/injection, schedule: Q01DX011 (ip), vehicle: carboxymethylcellulose (CMC)) was 17 % of control and 20 % of control and the T/C (dose: 20.0 mg/kg/injection, schedule: Q01DX011 (ip), vehicle: carboxymethylcellulose (CMC)) was 14 % of control.
